In US6291637A (priority 1999, dated 2001):
Where no end group is shown, it is not given here.

How the values were obtained:
[1] = test system: cap-dependent translation (CAT RNA); assay type: biochemical
[2] = test system: poliovirus IRES-dependent translation (P2CAT RNA); assay type: biochemical
[3] = test system: cellular translation
[4] = test system: PV
[5] = test system: poliovirus 5'-UTR (IRES)-mediated translation; assay type: biochemical

5' GCGCGGGCAGCGCA 3' (chemistry not given here) [BI-RNA]
inhibition of cap-dependent translation of CAT (pG3CAT/pCAT) RNA [1]: not cap dependent-translation
inhibition of poliovirus IRES-mediated translation of P2CAT RNA [2]: specifically inhibiting translation by internal initiation

AALEAKICHQIEYYFGDF [LAP]
effect on cellular translation [3]: does not interfere with cellular translation
entry into human cells [4]: appears to freely diffuse into human cells

B1: La protein (protein, UniProt P05455 1-408, looked up)
Lupus La protein: MAENGDNEKMAALEAKICHQIEYYFGDFNLPRDKFLKEQIKLDEGWVPLEIMIKFNRLNRLTTDFNVIVEALSKSKAELMEISEDKTKIRRSPSKPLPEVTDEYKNDVKNRSVYIKGFPTDATLDDIKEWLEDKGQVLNIQMRRTLHKAFKGSIFVVFDSIESAKKFVETPGQKYKETDLLILFKDDYFAKKNEERKQNKVEAKLRAKQEQEAKQKLEEDAEMKSLEEKIGCLLKFSGDLDDQTCREDLHILFSNHGEIKWIDFVRGAKEGIILFKEKAKEALGKAKDANNGNLQLRNKEVTWEVLEGEVEKEALKKIIEDQQESLNKWKSKGRRFKGKGKGNKAAQPGSGKGKVQFQGKKTKFASDDEHDEHDENGATGPVKRAREETDKEEPASKQQKTENGAGDQ
effect on viral 5'-UTR-mediated translation [5]: Significant stimulation
reversal of I-RNA-mediated inhibition of translation [5]: reversed
